Experimental data as given in patent US7780988B2, “Method for making homogeneous spray-dried solid amorphous drug dispersions using pressure nozzles” (Bend Research, Inc., priority 2002, dated 2010).

Key:
[1] = Dissolution test of Drug 2 dispersions (as in Example 1, with exceptions); type: physicochemical; conditions: 2000 μg/mL if all of the drug had dissolved, PBS pH 6.5, 37° C.
Method: For this test, samples containing 7.2 mg of the Example 1 dispersion were added to microcentrifuge tubes, in duplicate. The tubes were placed in a 37° C. temperature-controlled chamber, and 1.8 mL PBS at pH 6.5 and having an osmotic pressure of 290 mOsm/kg was added. The samples were mixed using a vortex mixer for about 60 seconds. The samples were centrifuged at 13,000 G at 37° C. for 1 minute. The resulting supernatant solutions were then sampled and diluted 1:6 by volume with methanol and then analyzed by high-performance liquid chromatography (HPLC) at a UV absorbance of 256 nm using a Waters Symmetry C8 column and a mobile phase consisting of 15% (0.2% H3PO4)/85% methanol. The contents of the tubes were mixed on the vortex mixer and allowed to stand undisturbed at 37° C. until the next sample was taken. […]
The solubility and physical properties of the dispersions of Example 4 and Control C2 were determined as in Example 1 with the following exceptions. For measurement of concentration enhancement, sufficient quantities of the dispersion were added to the microcentrifuge tubes such that the concentration if all of the drug had dissolved would be 2000 μg/mL. Samples were analyzed by HPLC, with absorbance at 297 nm (Hewlett Packard 1100 HPLC, Zorbax SB C18 column, 35% acetonitrile/65% H2O). The same properties of a control of crystalline Drug 2 (CD2) alone were also determined.

[2] = Dissolution test of Drug 1 dispersions in PBS (concentration enhancement); type: physicochemical; conditions: PBS pH 6.5, 37° C.
Method: For this test, samples containing 7.2 mg of the Example 1 dispersion were added to microcentrifuge tubes, in duplicate. The tubes were placed in a 37° C. temperature-controlled chamber, and 1.8 mL PBS at pH 6.5 and having an osmotic pressure of 290 mOsm/kg was added. The samples were mixed using a vortex mixer for about 60 seconds. The samples were centrifuged at 13,000 G at 37° C. for 1 minute. The resulting supernatant solutions were then sampled and diluted 1:6 by volume with methanol and then analyzed by high-performance liquid chromatography (HPLC) at a UV absorbance of 256 nm using a Waters Symmetry C8 column and a mobile phase consisting of 15% (0.2% H3PO4)/85% methanol. The contents of the tubes were mixed on the vortex mixer and allowed to stand undisturbed at 37° C. until the next sample was taken. […] Control 1 and crystalline Drug 1 alone were tested using the same procedure.
The concentrations of drug obtained in these samples were used to determine the value of the maximum concentration of drug in the first ninety minutes (Cmax90) and the area under the curve of drug concentration versus time in the first ninety minutes (AUC90).

AUC90 [1] | Cmax90 [1] | AUC90 ([2]; Drug 1, area under the curve of drug concentration versus time in the first ninety minutes) | Cmax90 ([2]; Drug 1, maximum concentration of drug in the first ninety minutes) | Drug 1 Concentration ([2]; 7.2 mg dispersion in 1.8 mL, time 0 min) | AUC ([2]; elapsed time 0 min) | AUC ([2]; elapsed time 4 min) | AUC ([2]; elapsed time 10 min) | AUC ([2]; elapsed time 20 min) | AUC ([2]; elapsed time 40 min) | AUC ([2]; elapsed time 90 min) | AUC ([2]; elapsed time 1200 min) | Drug 1 Concentration ([2]; time 4 min) | Drug 1 Concentration ([2]; time 10 min) | Drug 1 Concentration ([2]; time 20 min) | Drug 1 Concentration ([2]; time 40 min) | Drug 1 Concentration ([2]; time 90 min) | Drug 1 Concentration ([2]; time 1200 min) | SMILES
12,800 min · μg/mL | 149 µg/mL |  |  |  |  |  |  |  |  |  |  |  |  |  |  |  |  | O=C(N[C@@H](Cc1ccccc1)[C@@H](O)C(=O)N1C[C@@H](O)[C@@H](O)C1)c1cc2cc(Cl)ccc2[nH]1 [CD2, 5-chloro-1H-indole-2-carboxylic acid [(1S)-benzyl-3-((3R,4S)-dihydroxypyrroldin-1-yl-)-(2R)-hydroxy-3-oxypropyl]amide]
 |  | <88 µg·min/mL | <1 µg/mL | 0 µg/mL | 0 µg·min/mL | <2 µg·min/mL | <8 µg·min/mL | <18 µg·min/mL | <38 µg·min/mL | <88 µg·min/mL | <1,200 min · μg/mL | <1 µg/mL | <1 µg/mL | <1 µg/mL | <1 µg/mL | <1 µg/mL | <1 µg/mL | CCOC(=O)N1c2ccc(C(F)(F)F)cc2C(N(Cc2cc(C(F)(F)F)cc(C(F)(F)F)c2)C(=O)OC)CC1CC (stereo not drawn) [Crystalline Drug 1, 4-[(3,5-bis-trifluoromethyl-benzyl)-methoxycarbonyl-amino]-2-ethyl-6-trifluoromethyl-3,4-dihydro-2H-quinoline-1-carboxylic acid ethyl ester]
